Assay results as given in article PMC6735331, “Competitive α-glucosidase inhibitors, dihydrobenzoxanthones, from the barks of Artocarpus elasticus” (Journal of Enzyme Inhibition and Medicinal Chemistry, 2019).
“Also recorded” adds a separate entry of the source. Like-named read-outs stand apart in the source and are kept apart here.

Key:
[1] = molecular target: T1, α-glucosidase (EC3.2.1.20) (Saccharomyces cerevisiae, UniProt P53341); experiment: α-Glucosidase enzyme kinetics (Lineweaver–Burk, Dixon plots, secondary plots, Yang's method); assay type: biochemical; parameters: Vmax: unit not given here; details: for Kik/Kiv: Yang's method; for Kinetic mode: double reciprocal (Lineweaver–Burk) plots; for KIS: inhibitor binding with enzyme-substrate complex, secondary plots of intercepts
T1 construct: purchased Sigma Aldrich
Method: Similarly, the enzyme kinetic modes were clarified using a different p-nitrophenyl-α-D-glucopyranoside substrate (0, 0.5, 1, and 2 mM) and inhibitors concentrations. Analysis of the data used to determine the individual parameters of curves was prepared in the nonlinear regression program Sigma Plot (SPCC Inc., Chicago, IL, USA). The kinetic parameters, Michaelis–Menten (Km) and maximum velocity (Vmax), were found using Lineweaver–Burk plots. The dissociation constants between inhibitor and enzyme (Ki) were found from Dixon plots. Two inhibition constants for inhibitor binding with either free or enzyme-substrate complex, KI or KIS, were calculated from secondary plots of the slopes of the straight lines or vertical intercept (1/ Vmaxapp ), respectively, verse the concentration of inhibitors by Equations (2)–(4). Kik and Kiv rate constants were calculated according to Equations (5) and (6) proposed by Yang et al.[20]: (2) 1/V=Km/Vmax(1 + [I]/KI)1/S + 1/Vmax (3) Slope =Km/KIVmax[I] +Km/Vmax (4) Intercept = 1/KISVmax[I] +[…] (5) Km=Km0× (1 + [I]/Kik) (6) Vm=Vm0× (1 + [I]/Kiv)

α-glucosidase [2] = molecular target: T2, α-glucosidase (Saccharomyces cerevisiae, UniProt P53341); experiment: Binding affinity measurement by fluorescence quenching (Stern–Volmer); details: for KSV: Stern–Volmer constant
T2 construct: purchased Sigma Aldrich
Method: 180 µL of 50 mM phosphate buffer (pH 6.8) with 10 µL of 0.2 unit/mL α-glucosidase were added into the 96-well black immuno-plates then 10 µL different concentrations (2–32 µM) of inhibitor were added. Fluorescent emission spectra were recorded from 300 to 400 nm, emission slits adjusted to 2.0 nm, and the excitation was 250 nm, using spectrophotometer (SpectraMax M3). There was no significant emission from any ingredient in the assay system under given experimental conditions (i.e. emission from 300 to 400 nm). A level of affinity was expressed with KSV, which was analysed using the Stern–Volmer equation: (12) […]=1+KSV[Qf] where F0 and F are the fluorescence intensities in the absence and presence of a quencher. Qf is a concentration of compounds.

[3] = molecular target: T1, α-glucosidase (EC3.2.1.20); experiment: biochemical
Method: The inhibitory activity of α-glucosidase (EC3.2.1.20) was carried out with a few changes from literature reported method, using p-nitrophenyl-α-D-glucopyranoside at optimal pH of 6.8 (50 mM phosphate buffer)[3]. Inhibitors were dissolved and diluted to a needed concentration in DMSO. […] The absorbance of formed p-nitrophenol immediately measured with a wavelength of 405 nm at 37 °C. […] Calculation of the % of inhibition was as follows: (1) Activity (%)=100[1+([I]/IC50)]

α-glucosidase [4] = molecular target: T2, α-glucosidase; experiment: Progress curves and time-dependent (slow-binding) assay; assay type: biochemical
Method: Time-dependent assays of inhibitors at the different preincubation time (0, 15, 30, 45, 60 and 80 min) were accomplished using 0.05 unit/mL final concentration of α-glucosidase and p-nitrophenyl-α-D-glucopyranoside substrate (1 mM) in 50 mM phosphate buffer (pH 6.8) at 37 °C[21]. The progress curves were monitored every 30 s for 30 min. Furthermore, to clearly understand the time-dependent inhibition mode of α-glucosidase, inhibitors were assayed using different concentrations. Accordingly, the progress curves were calculated using Equations (7)–(11). Analysis of the data was prepared by the nonlinear regression program Sigma Plot (SPCC Inc., Chicago, IL, USA): (7) [P]t/[E]= vst+ vi−vs/kobs(1−e^−kobst) where [P]t is the concentration of product formed and [E] is the total enzyme concentration. (8) v/v0= exp (−kobst) (9) Enz+I⇄k4k3Enz−I (10) kobs=k4(1+[I]/Kiapp) (11) Kiapp=k4/k3

[5] = molecular target: T1, α-glucosidase (EC3.2.1.20); experiment: α-Glucosidase enzyme kinetics (Lineweaver–Burk, Dixon plots, secondary plots, Yang's method); assay type: biochemical; details: enzyme activity vs. enzyme concentration at different inhibitor concentrations
[6] = fluorescence quenching, read-out: KA (converted)
[7] = p-NPG substrate, 50 mM phosphate buffer pH 6.8, 37 °C, read-out: IC50
[8] = slow-binding fit, Equations (10) and (11)
[9] = from Dixon plots, read-out: Ki (inhibition constant)

T1 sequence (P53341 whole entry): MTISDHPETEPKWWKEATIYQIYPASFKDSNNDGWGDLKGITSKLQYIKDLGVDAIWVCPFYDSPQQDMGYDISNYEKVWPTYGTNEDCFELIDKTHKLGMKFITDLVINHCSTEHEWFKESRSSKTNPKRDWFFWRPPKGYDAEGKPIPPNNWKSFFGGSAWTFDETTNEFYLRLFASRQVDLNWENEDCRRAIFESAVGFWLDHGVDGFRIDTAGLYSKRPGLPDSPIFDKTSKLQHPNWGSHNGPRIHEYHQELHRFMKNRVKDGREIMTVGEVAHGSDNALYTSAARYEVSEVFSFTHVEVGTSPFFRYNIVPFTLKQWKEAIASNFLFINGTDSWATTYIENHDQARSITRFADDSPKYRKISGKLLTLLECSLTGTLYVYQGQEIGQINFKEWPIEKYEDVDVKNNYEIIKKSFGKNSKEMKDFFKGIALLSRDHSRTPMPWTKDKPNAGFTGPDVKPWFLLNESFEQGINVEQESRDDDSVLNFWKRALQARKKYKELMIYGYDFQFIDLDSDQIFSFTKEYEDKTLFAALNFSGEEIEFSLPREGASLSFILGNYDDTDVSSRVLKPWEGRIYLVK
T2 sequence (P53341 whole entry): as above

Compound | Vmax ([1]; [I] 7.5 μM) | Kik/Kiv ([1]; [I] 7.5 μM) | Vmax ([1]; [I] 15.0 μM) | Kik/Kiv ([1]; [I] 15.0 μM) | Vmax ([1]; [I] 30.0 μM) | Kik/Kiv ([1]; [I] 30.0 μM) | Kinetic mode [1] | KIS [1] | KSV (α-glucosidase [2]; pH 6.8, 37 °C) | Kd (α-glucosidase [2]; [6]) | IC50 [3, 7] | Ki [1, 9] | KSV (α-glucosidase [2]) | also measured
CC(C)=CCCC1(C)C=Cc2c(cc(O)c3c(=O)c(CC=C(C)C)c(-c4cc(O)c(O)cc4O)oc23)O1 (single isomer, unassigned; (-)) [Compound 5, (-)-2-(2,4,5-trihydroxyphenyl)-3-(3-methyl-2-buten-1-yl)-5-hydroxy-8-methyl-8-(4-methyl-3-penten-1-yl)-4H,8H-benzo[1,2-b:3,4-b']dipyran-4-one] | 4.74 | 3.79 | 3.67 | 3.18 | 2.79 | 3.25 | Mixed type I | 20.4 µM | 1.63 ×10^5 L·mol^–1 | 1.23 µM | 8.8 ± 0.3 µM |  |  | Ki ([1]; inhibitor binding with free enzyme, secondary plots of slopes, read-out: KI): 5.4 µM
C=C(C)C1Cc2c(oc3cc(OC)cc(O)c3c2=O)-c2c(O)cc(O)c(O)c21 (centres unmarked) [Compound 1, 1,3,4,8-tetrahydroxy-10-methoxy-5-(prop-1-en-2-yl)-5,6-dihydro-benzo[c]xanthen-7-one] |  |  |  |  |  |  | Competitive |  | 1.84 ×10^5 L·mol^–1 | 1.27 µM | 7.6 ± 0.2 µM | 2.9 µM | 1.84 × 10^5 Lmol^−1 | Time-dependent inhibition mode (α-glucosidase [4]; preincubation time dependence, kobs vs [I]): competitive and reversible simple slow-binding; also recorded: slow-binding inhibitor; k3 (α-glucosidase [4]; [8]): 728 M⁻¹ s⁻¹; k4 (α-glucosidase [4]; [8]): 0.0166 min⁻¹; Ki (α-glucosidase [4]; slow-binding fit, Kiapp = k4/k3): 0.38 µM; Vmax ([1]; [I] 4.0 μM): 6.30; Kik/Kiv ([1]; [I] 4.0 μM): 55.80; Vmax ([1]; [I] 8.0 μM): 6.50; Kik/Kiv ([1]; [I] 8.0 μM): 48.88; Vmax ([1]; [I] 16.0 μM): 7.55; Kik/Kiv ([1]; [I] 16.0 μM): 29.79; Reversibility of inhibition [5]: reversible inhibitor
C=C(C)[C@H]1Cc2c(oc3c4c(cc(O)c3c2=O)OC(C)(C)C=C4)-c2c(O)cc(O)c(O)c21 [Compound 2, artobiloxanthone] | 9.7056 | 76.6587 | 9.6712 | 102.4604 | 9.8012 | 209.3396 | Competitive |  | 1.53 ×10^5 L·mol^–1 | 1.32 µM | 8.6 ± 0.5 µM | 5.1 µM |  | 
CC1(C)Oc2c(O)cc(O)c3c2C1Cc1c-3oc2cc(O)cc(O)c2c1=O (centres unmarked) [Compound 3, artoindonesianin P] |  |  |  |  |  |  | Competitive |  | 0.51 ×10^5 L·mol^–1 | 1.75 µM | 25.4 ± 0.7 µM | 12.6 µM | 0.51 × 10^5 Lmol^−1 | Vmax ([1]; [I] 17.5 μM): 6.6800; Kik/Kiv ([1]; [I] 17.5 μM): 23.8593; Vmax ([1]; [I] 35 μM): 6.7889; Kik/Kiv ([1]; [I] 35 μM): 31.6240; Vmax ([1]; [I] 70 μM): 6.7204; Kik/Kiv ([1]; [I] 70 μM): 75.7804
CC1(C)C=Cc2c(cc(O)c3c(=O)c4c(oc23)-c2c(O)cc(O)c3c2C(C4)C(C)(C)O3)O1 (centres unmarked) [Compound 4, cycloartobiloxanthone] | 6.3816 | 16.6987 | 7.3692 | 11.4837 | 7.4627 | 20.2662 | Competitive |  | 1.29 ×10^5 L·mol^–1 | 1.27 µM | 9.6 ± 0.6 µM | 5.8 µM |  | 
CC(C)=CCc1c(-c2cc(O)c(O)cc2O)oc2c3c(cc(O)c2c1=O)OC(C)(C)C=C3 [Compound 6, artonin E] | 5.0352 | 3.7049 | 4.2992 | 2.5098 | 3.6219 | 1.8101 | Mixed type I | 51.7 µM | 0.93 ×10^5 L·mol^–1 |  |  |  | 0.93 × 10^5 Lmol^−1 | Ki ([1]; KI, inhibitor binding with free enzyme, secondary plots of slopes): 15.4 µM; Ki ([1]; Ki (inhibition constant), from Dixon plots): 15.8 µM; Kd (α-glucosidase [2]): 1.28 µM; IC50 [3]: 16.2 ± 0.8 µM
